± gives the expanded uncertainty stated by the source.
Tests used:
[1] = Liquid; for mass density: 293.15 K, 101.33 kPa, Vibrating tube method
[2] = refractive index (Na D-line) (dimensionless); details: 293.15 K; 101.33 kPa; Liquid; Standard Abbe refractometry

mass density [1]	vapor or sublimation pressure ([1]; 350.21 K, Closed cell (Static) method)	refractive index [2]	vapor or sublimation pressure ([1]; 369.09 K, Closed cell (Static) method)	vapor or sublimation pressure ([1]; 336.48 K, Closed cell (Static) method)	vapor or sublimation pressure ([1]; 354.3 K, Ebulliometric method (Recirculating still))	vapor or sublimation pressure ([1]; 447.7 K, Ebulliometric method (Recirculating still))	vapor or sublimation pressure ([1]; 447.74 K, Ebulliometric method (Recirculating still))	Structure (SMILES)
788.9 ± 0.3 kg/m3	96.5 ± 4.8 kPa	1.3609 ± 0.0007	–	–	–	–	–	CCO [ethanol]
803.4 ± 0.3 kg/m3	–	1.3851 ± 0.0007	96.5 ± 4.8 kPa	–	–	–	–	CCCO [propan-1-ol]
791.2 ± 0.3 kg/m3	–	1.3285 ± 0.0007	–	96.5 ± 4.8 kPa	–	–	–	CO [methanol]
788.5 ± 0.3 kg/m3	–	1.3878 ± 0.0008	–	–	96.5 ± 4.8 kPa	–	–	CC(C)(C)O [2-methylpropan-2-ol]
821.8 ± 0.3 kg/m3	–	1.4227 ± 0.001	–	–	–	96.5 ± 4.8 kPa	96.5 ± 4.8 kPa	CCCCCCCO [heptan-1-ol]
